# Laboratory results from PubChem BioAssay AID1117361 (Southern Research Institute, 2015).
# Target: Protein Tat (Human immunodeficiency virus type 1 group M subtype B (isolate HXB2)) (UniProt P04608)
# Assay: inhibitors of Tat binding to TAR RNA, dose response, counter-screen for Vif-APOBEC3G degradation inhibitor project, biochemical, fluorescence polarization, FAM-labeled TAR RNA (AID 1117361)
# Chain of Protein Tat (Human immunodeficiency virus type 1 group M subtype B (isolate HXB2)) (P04608 whole entry, looked up): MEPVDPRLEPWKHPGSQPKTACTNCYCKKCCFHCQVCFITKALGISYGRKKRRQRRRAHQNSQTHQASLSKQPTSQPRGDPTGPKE
row,Compound,IC50
1,N=C1/C(=C\c2ccc(SCc3ccco3)o2)C(=O)N=C2SC=NN12,2.49 µM
2,O=c1c(O)cccc2cc(O)c(O)c(O)c12,3.96 µM
3,O=C(O)c1ccc2c(c1)C1C=CCC1C(c1ccncc1)N2 (centres undefined),6.37 µM
4,O=C1c2cccnc2C(Nc2ccccc2)N1Cc1ccco1 (centres undefined),79.2 µM
5,COc1ccc2c(c1)n([O-])c1c([n+]2=O)CCC1,52.1 µM
6,CCOC(=O)NC1(NC2CCCCC2)Oc2ccccc2O1,88.4 µM
7,CCC(=Nc1ccc(N)cc1)C1=C(O)C(C(=O)OC)C(C)(C)CC1=O (centres undefined),5.48 µM
8,CCCN1C(=O)S/C(=C\c2ccc(N3CCOCC3)cc2C)C1=O,1.92 µM
9,CN1C(=O)/C(=C/C=C/c2ccco2)C(=O)NC1=S,11.2 µM
10,Cc1cc([N+](=O)[O-])cc2c1NC(c1ccccn1)C1CC=CC21 (centres undefined),49.1 µM
11,CC(C)N1C(=O)CC(Nc2ccc(N3CCOCC3)cc2)C1=O (centres undefined),16 µM
12,CC1=CN2C(=N)/C(=C/c3ccc([N+](=O)[O-])o3)C(=O)N=C2S1,12.2 µM
13,O=C(O)C1Nc2c(C(=O)N3CCOCC3)cccc2C2C=CCC12 (centres undefined),8.99 µM
14,COC/C=C/C1=CC2=CC(=O)C(C)(OC(=O)c3ccco3)C(=O)C2=CO1 (centres undefined),7.47 µM
15,O=C(Nc1ccccc1)c1ccc2nc(-c3ccco3)c(-c3ccco3)nc2c1,7.63 µM
16,CN(C)N1C(N)=C(C#N)C(c2cccnc2)C2=C1CCCC2=O (centres undefined),15.3 µM
17,O=c1cc(-c2ccc(O)cc2)oc2c(O)c(O)c(O)c(O)c12,74.9 µM
18,C(=C\c1ccco1)/C=N/n1cnnc1,10.4 µM
19,CCCCn1c(=NC(=O)c2cccnc2)c(C#N)cc2c(=O)n3cccc(C)c3nc21,4.74 µM
20,Cc1nc2ncccn2c1-c1csc(NCc2ccco2)n1,6.08 µM
21,C=C(C)C(=O)Nc1cccc(C2=NOC3(C2)C[C@@H](C(N)=O)N(C(=O)c2cc([N+](=O)[O-])cc([N+](=O)[O-])c2)C3)c1 (some centres undefined),52.9 µM

row,Compound,IC50
1,O=C(O)C1=NN(c2cc(Cl)c(S(=O)(=O)O)cc2Cl)C(=O)C1,30.9 µM
2,CCc1ccccc1NC(=O)c1cccc(NC(=O)/C=C/c2ccco2)c1,26.6 µM
3,Cc1ccc(S(=O)(=O)OCC(=O)Nc2ccc(C(=O)O)c(O)c2)cc1,75.3 µM
4,CC(C)C(C(=O)O)N1C(=O)/C(=C/C=C/c2ccco2)SC1=S (centres undefined),1.4 µM
5,Fc1ccccc1/C=C1\CCCC2=C1Nc1ncnn1C2c1ccccc1F (centres undefined),23.7 µM
6,O=C(O)CCc1ccc(S(=O)(=O)Nc2cc(C(F)(F)F)ccc2N2CCCC2)cc1,68.2 µM
7,COC(=O)C1=C(C)NC(=O)/C1=C\c1cc(C)n(-c2ccccc2C)c1C,28.7 µM
8,Cc1cccc2cc(-c3ccccc3)c(-c3ccccc3)c[n+]12,15 µM
9,Cc1[nH]c2c(Cl)cccc2c(=O)c1CN1CCCC1,78.3 µM
10,O=[N+]([O-])c1cc(CN2CCOCC2)c2cccnc2c1O,15.8 µM
11,COc1cc(/C=C2/C(=O)c3cccc([N+](=O)[O-])c3C2=O)c(Br)cc1O,96.5 µM
12,CCC1C/C(=C/c2ccco2)C(=O)/C(=C/c2ccco2)C1 (centres undefined),12.6 µM
13,O=C(NC1CCC(C(=O)O)CC1)OCc1ccccc1 (centres undefined),79.8 µM
14,O=C(N/N=C/c1cn(Cc2cccc(F)c2)c2ccccc12)c1cc(O)cc(O)c1,15 µM
15,N#Cc1c(-c2ccco2)c2c([nH]c1=S)CCCC2,8.34 µM
16,CN(C)C(=O)c1nc2ccc(Cl)cn2c1CN1CCCC(OCc2ccccc2)C1 (centres undefined),44.6 µM
17,O=[n+]1c2c(n([O-])c3cc(F)c(F)cc31)CCCC2,11.1 µM
18,CN(C)c1ccc2cc(S(=O)(=O)O)cc(O)c2c1,90 µM
19,Cc1ccc(-c2ccc(CCC(=O)O)n2NC(N)=S)cc1,17.8 µM
20,O=C(CCN1C(=O)/C(=C/c2cccs2)SC1=S)NC1=NCCS1,46 µM
21,COc1cccc(=O)c2c(C)n(-c3ccc(C(=O)O)cc3)c(C)c12,3.06 µM

row,Compound,IC50
1,O=C1NC(=S)NC1=Cc1ccco1,35.7 µM
2,CC1Cc2ccccc2N1Cc1cc(=O)n2ccsc2n1 (centres undefined),10 µM
3,CCOc1cccc(=O)c2c(C)n(-c3ccc(C(=O)O)cc3)c(C)c12,3.3 µM
4,C/C(=N\Nc1ccc([N+](=O)[O-])cc1[N+](=O)[O-])c1cc2c(ccc3ccccc32)oc1=O,15.6 µM
5,CC1CCC/C(=C\Nc2ccc(C(=O)O)c(O)c2)C1=O (centres undefined),5.37 µM
6,O=C1NC(=O)N(Cc2ccco2)C(=O)/C1=C/C=C/c1ccco1,1.95 µM
7,CCc1cc(=O)n2[nH]c(C)c(-c3ccccc3OC)c2n1,12.7 µM
8,Cc1cc(/C=C2\C(=O)NC(=O)N(c3cccc(F)c3)C2=O)c(C)n1-c1cc(C(=O)O)cc(C(=O)O)c1,2.95 µM
9,CCN(CC(=O)Nc1c(F)cccc1F)C(=O)CSC(=S)N1CCCC1,75.6 µM
10,O=C(Nc1ccccc1)C1=C(O)CC(c2ccco2)CC1=Nc1ccccc1 (centres undefined),70.3 µM
11,COc1ccc(Nc2ccc(OC)cc2)cc1,23.2 µM
12,O=C(O)c1ccc(-n2cccc2/C=C2/NC(=O)N(c3ccccc3)C2=O)cc1,15.7 µM
13,COc1ccccc1NC(=O)CSc1nnc(Cc2cc(=O)[nH]c(=O)[nH]2)n1-c1ccccc1,66.5 µM
14,Cc1oc(-c2ccc(Cl)cc2)cc1-c1nn2c(-c3ccoc3C)nnc2s1,2.87 µM
15,Oc1ccc(N=Cc2ccc(-c3cccs3)s2)cc1,8.64 µM
16,O=C1NC(=O)C(=Cc2ccc(SC3CCCCC3)o2)C(=O)N1,30.9 µM
17,Cc1ccc(NC(=O)CN(C)C(=O)c2cccc(-n3cccc3)c2)cc1,38 µM
18,CCN(CC)C(=O)c1ccc2c(c1)C1C(Cl)C(Sc3ccccc3[N+](=O)[O-])CC1C(C(=O)O)N2 (centres undefined),5.54 µM
19,NS(=O)(=O)c1ccc(N=Nc2c[nH]c(=O)c(O)c2)cc1,9.47 µM
20,O=C1CC(=O)N(Cc2ccco2)C(=O)N1,14.6 µM
21,N#C/C(=C/c1ccc(Br)o1)C(N)=S,16 µM

row,Compound,IC50
1,O=C(O)Cc1cccc(=O)c(O)c1C(=O)O,54.7 µM
2,Cc1ccc2c(c1C)NC(C(=O)O)C1CC=CC21 (centres undefined),34.7 µM
3,O=[N+]([O-])c1cc(Br)c(O)c(C=Nc2ccc(N3CCOCC3)cc2)c1,77.5 µM
4,Cc1ccc(N(CC(=O)NCCSCc2ccco2)S(=O)(=O)c2ccc(F)cc2)cc1,63.7 µM
5,Nc1ccc(N(CCO)CCO)cc1,9.62 µM
6,COc1ccc(C2=CC(c3ccc(Cl)cc3)n3cnnc3N2)cc1OC (centres undefined),6.19 µM
7,Oc1ccc(/C=N/NC2=NCCCCC2)c(O)c1,25.1 µM
8,O=C1C=Cc2ccccc2C1=O,30.5 µM
9,O=C(O)CSc1c2c(nc3cc(C(=O)Nc4cccc(C(F)(F)F)c4)ccc13)CCC2,56.2 µM
10,COCc1cc(C)nc(NCCO)c1C#N,1.44 µM
11,Cc1cccc(C)c1NC(=O)CSc1nnc(-c2ccco2)c(-c2ccco2)n1,6.43 µM
12,Oc1cccc(C=NCc2ccccc2)c1O,6.47 µM
13,COc1ccc2c(c1)C(=O)c1ccccc1CO2,46.3 µM
14,Cc1cc(O)c(-c2cc(O)c(C)cc2O)cc1O,89.7 µM
15,COc1cc(NC(=O)CS(=O)(=O)c2ccc(C)cc2)cc(OC)c1OC,1.42 µM
16,CC(C)(C)C1C/C(=C/c2ccco2)C(=O)/C(=C/c2ccco2)C1 (centres undefined),7.08 µM
17,O=C(O)COc1ccc2c(c1)O/C(=C\c1ccco1)C2=O,53.1 µM
18,Cc1cc2ccccc2n1CCNC(=O)C1CCCCC1,23.5 µM
19,Cc1ccc(Cl)cc1N1CCN(C(=O)COc2ccc3c(c2)CCC3)CC1,57.2 µM
20,O=C(Cc1csc(N2CCOCC2)n1)N/N=C/c1ccc(O)c(O)c1O,16.7 µM
21,Cc1cc(C)nc(N/N=C/C2=C(N3CCOCC3)C(=C\c3ccc(Cl)cc3)/CC2)n1,72.4 µM
